Experimental data reported in US20220257722A1, “COMPOSITIONS AND METHODS OF TREATING AND PREVENTING SYSTEMIC COMPLICATIONS OF ACUTE ILLNESS” (United States Government As Represented By The Department …, priority 2019, published 2022).

How the values were obtained:
[1] = system: rat small intestine; assay: LPS-induced small intestinal FD4 paracellular permeability in vivo (PV and arterial FD4); settings: for TDG-induced inhibitory effect on PV FD4 levels: LPS 6 hr + TDG 6 hr
Protocol: LPS treatment. Animals were treated with LPS (5 mg/kg, ip) once at 9 am. For the acute experiments, the animals were fasted overnight and were treated with LPS 1, 3, or 6 hr before the anesthesia for small intestinal perfusion of FD4 as described herein. For the 24-hr experiments, the animals fed ad libitum were treated with LPS 24 hr before anesthesia induction used for the perfusion study. As a control, saline was injected ip at the corresponding time before the experiments. The animal groups were expressed as control, LPS 1 hr, LPS 3 hr, LPS 6 hr, and LPS 24 hr.
Small intestinal perfusion. The small intestinal perfusion from the duodenum, and portal vein (PV) cannulation were prepared by the modified methods. Under isoflurane anesthesia (2%), the animal was placed […] on a recirculating heating block system (Summit Medical Systems, Bend, Oreg., USA) in order to maintain body temperature at 36-37° C. Prewarmed saline was infused via the right femoral vein at 1.08 ml/h using a Harvard infusion pump (Harvard Apparatus, Holliston, Mass., USA). The abdomen was incised, and the PV was cannulated with a polyethylene (PE)-50 tube attached with 23G needle and fixed by methylacrylate adhesive at the insertion site. The tube was filled with heparinized saline enabling repeated blood sampling. Samples of 0.2 ml PV blood were collected every 15 min, followed by flushing with 0.2 ml heparinized saline. A polyethylene tube (diameter 5 mm) filled with PBS was inserted through the forestomach and tied at 0.5 cm caudal from the pyloric ring. After bolus perfusion of 2-ml phosphate buffer saline (PBS, 10 mM, pH 7.4) into the duodenum from the tube, followed by stabilization for ˜30 min, the time was set as t=0. FD4 (0.1 mM) in 10-ml PBS was slowly perfused at t=0 min for 30 sec. Blood samples were collected into a 0.5-ml tubes containing 1-μl each of EDTA (0.5 M) and the dipeptidyl peptidase-4 (DPP4) inhibitor NVP-728 (1 mM), and immediately centrifuged at 5,000× g for 5 min, after which the plasma was stored on ice or at −80 ° C. until use. At 90 min, after collection of PV samples, arterial blood was taken from abdominal aorta, followed by euthanasia by thoracotomy.
Appearance of FD4 into the PV and arterial plasma was assessed by fluorescence intensity measurement using a multi-mode microplate reader (Synergy-2, BioTek Instruments, Inc., Winooski, VT, USA). Fluorescence intensity in t=0 sample as background was subtracted from the fluorescence values measured in other time point samples. FD4 content was calculated according to the standard curve generated each time of measurement.
Drug treatment for the intestinal perfusion study. The following drugs were administered at the time after LPS treatment: the GLP2R partial agonist/antagonist GLP-2(3-33) (1 mg/kg; 280 nmol/kg, ip) was given immediately after LPS treatment (0 hr after LPS treatment); GLP-2 (380 μg/kg; 100 nmol/kg, ip) was given 6 hr after LPS treatment; a stable GLP-2 analog TDG (50 μg/kg; 13.3 nmol/kg) was ip injected 0, 3, 6, or 12 hr after LPS treatment or iv injected at t=0 min just before the perfusion of FD4 solution (6 or 24 hr after LPS treatment). In acute experiments, TDG was iv injected at t=0 min (6 hr after LPS treatment) with or without the pretreatment of the selective IGF1 receptor (IGF1R) tyrosine kinase inhibitor AEW541 (0.1 mg/kg, iv), the selective EGF receptor (EGFR) tyrosine kinase inhibitor PD153035 (10 μg/kg, iv) or PG97-269 (1 mg/kg, iv) at t=−10 min, or the co-perfusion of L-NAME (0.1 mM, pf) with FD4 solution.

[2] = system: rat jejunal mucosa; assay: LPS mucosal-to-serosal transport in Ussing-chambered rat jejunal mucosa (LAL test); type: cell-based; settings: for OA/TCA-augmented LPS transport (t=30-45 min): mucosal LPS 10 μg/ml + OA 30 mM/TCA 0.1 mM; for OA/TCA-augmented LPS transport (t=30-45 min) / LPS transport at t=15 min (LPS alone, absence of OA/TCA): drug added 10 or 15 min before LPS; for LPS transport at t=15 min (LPS alone, absence of OA/TCA): mucosal LPS 10 μg/ml
Protocol: Short-circuit current measurements in Ussing chambered preparations. Mucosa-submucosa preparations were prepared from the mid-jejunum (˜20 cm from the pyloric ring) by muscle stripping using fine forceps under a stereomicroscope. Two or four preparations were prepared from one animal. The tissue was then mounted between two hemi-sliders with an aperture=0.3 cm^2 (Physiologic Instruments, San Diego, Calif., USA). Chambers were bathed with serosal and luminal bathing solutions in a volume of 4 ml each, maintained at 37° C. using a water recirculating heating system. The serosal Krebs-Ringer solution contained (in mM) NaCl, 117; KCl, 4.7; MgCl2, 1.2; NaH2PO4, 1.2; CaCl2, 2.5; NaHCO3, 25; glucose, 11; and bubbled with 95% O2-5% CO2 to maintain pH at 7.4. The luminal bathing solution contained NaCl, 136; KCl, 2.6; CaCl2, 1.8; HEPES, 10 (pH 7.0); mannitol, 11; and bubbled with 100% O2. The tissues were short-circuited by a voltage clamp (VCC MC6, Physiologic Instruments) at zero potential difference with automatic compensation for solution resistance. Short-circuit current (Isc) was continuously measured with tissue conductance (Gt) and TEER (Ω·cm^2) determined every 20 sec in order to assess the tissue integrity during the LPS and lipid exposure. The current was recorded by the DataQ system (Physiologic Instruments). IND (10 μM) was added to the serosal bath to eliminate the effects of endogenous prostaglandin production. The tissues were stabilized for ˜30 min before the addition of test chemicals.
LPS movement from mucosal to serosal solution. LPS movement m-to-s was assessed using a LAL test kit (Pierce Chromogenic Endotoxin Quant Kit, Pierce Biotechnology, Rockford, Ill., USA), which eliminates non-specific detection of (1,3)-β-D-glucan, then reduces false-positive LPS measurements. After tissue stabilization, time was set as t=0 min. Fifty μl of the serosal solution was collected at 0 min as a blank sample, followed by collection at t=15, 30 and 45 min. At t=0 min, LPS (10 μg/ml) was added into the mucosal solution. Vehicle (PBS alone), TCA alone (0.1 mM) in PBS or OA (3, 10, 30 mM) with TCA (0.1 mM) in PBS was added into the mucosal solution at t=15 min. The tissues were pretreated with drugs 10 or 15 min before the addition of LPS (i.e. at t=−10 or −15 min). The collected serosal solutions were kept at −80° C. until use. LPS content in the serosal solutions was measured with the LAL test according to the manufacturer's protocol. The value of background at t=0 min was subtracted and the serosal LPS appearance was expressed as Δ[LPS] (EU/ml). In some experiments, FITC-LPS (10 μg/ml) was used instead of LPS. Serosal FITC-LPS content was assessed by FITC fluorescence intensity measurement using a multi-mode microplate reader (Synergy-2, BioTek Instruments, Inc., Winooski, Vt., USA). To detect macromolecule m-to-s movement across the mucosa, FD4 (0.1 mM) was applied into the mucosal bath and serosal FD4 content was assessed by FITC fluorescence intensity measurement.
Ussing chamber study: drug treatment. The following drugs were pretreated by addition to the mucosal (m) or serosal (s) bath 10 or 15 min before LPS addition to the mucosal bath: the lipid raft inhibitor MβCD (1 mM, m), the CD36 inhibitor SSO (0.1 mM, m), the muscarinic agonist CCh (10 μM, s), a competitive substrate for IAP (IAP inhibitor) GP (10 mM, m) (47), GLP-2 (100 nM, s), the dipeptidyl peptidase-4 (DPP4) inhibitor NVP-728 (10 μM, s) (36), the stable GLP-2 analog TDG (100 nM) (13), the insulin-like growth factor-1 (IGF-1) receptor tyrosine kinase inhibitor NVP-AEW-541 (10 μM, s) (22), the epidermal growth factor (EGF) tyrosine kinase inhibitor PD153035 (1 μM, s) (6), the nitric oxide (NO) synthase (NOS) inhibitor L-NAME (0.1 mM, s) and the selective VPAC1 antagonist PG97-269 (1 μM) (26).

[3] = pig, in vivo; cited from earlier work
[4] = inhibitor iv at t=-10 min or co-perfused
[5] = LPS 24 hr model, GLP-2 380 μg/kg ip 6 hr after LPS
[6] = LPS 6 hr model, GLP-2(3-33) 1 mg/kg ip immediately after LPS
[7] = inhibitor serosal before GLP-2 + NVP-728

Nc1ncnc2c1c(-c1cccc(OCc3ccccc3)c1)cn2[C@H]1C[C@@H](CN2CCC2)C1 [NVP-AEW-541]
TDG-induced inhibitory effect on PV FD4 levels [1, 4]: no effect

O=P(O)(O)OCC(O)CO (stereo not drawn) [GP, glycerol phosphate]
OA/TCA-augmented LPS transport (t=30-45 min) [2]: further increased
LPS transport at t=15 min (LPS alone, absence of OA/TCA) [2]: no effect

N#Cc1ccc(NCCNCC(=O)N2CCC[C@H]2C#N)nc1 [NVP-728]
OA/TCA-augmented LPS transport (t=30-45 min) [2]: no effect
LPS transport at t=15 min (LPS alone, absence of OA/TCA) [2]: no effect

HADGSFSDEMNTILDNLATRDFINWLIQTKITD [GLP-2, Glucagon-like peptide-2; rat GLP-2 from Tocris used in the experiments]
LPS transport during OA/TCA exposure period, GLP-2 with NVP-728 ([2]; GLP-2 100 nM + DPP4 inhibitor NVP-728 10 μM, serosal): inhibited
OA/TCA-augmented LPS transport (t=30-45 min) [2]: no effect
LPS transport at t=15 min (LPS alone, absence of OA/TCA) [2]: no effect
t1/2 of exogenous GLP-2 [3]: ~7 min
PV FD4 levels [1, 5]: reduced
arterial FD4 levels [1, 5]: reduced

C[N+](C)(C)CCOC(N)=O [CCh, carbachol]
OA/TCA-augmented LPS transport (t=30-45 min) [2]: further increased
LPS transport at t=15 min (LPS alone, absence of OA/TCA) [2]: increased

GLP-2(3-33): GLP-2 receptor partial agonist/antagonist; truncated GLP-2 peptide missing the first 2 amino acids (DGSFSDEMNTILDNLATRDFINWLIQTKITD; Glucagon-like peptide 2; UniProt P06883 148-178, looked up, fragment)
OA/TCA-augmented LPS transport (t=30-45 min) [2]: no effect
LPS transport at t=15 min (LPS alone, absence of OA/TCA) [2]: no effect
PV FD4 levels at t=60-90 min [1, 6]: further increased
arterial FD4 levels at t=90 min [1, 6]: further increased

COc1cc2ncnc(Nc3cccc(Br)c3)c2cc1OC [PD153035]
amount of LPS transport after addition of OA/TCA, in presence of GLP-2 + NVP-728 [2, 7]: further increased
amount of LPS transport at t=15 min (prior to OA/TCA exposure), in presence of GLP-2 + NVP-728 [2, 7]: increased
TDG-induced inhibitory effect on PV FD4 levels [1, 4]: no effect
Arterial FD4 levels in LPS 6 hr + TDG 6 hr rats ([1]; t=90 min, inhibitor iv at t=-10 min or co-perfused): not affected
